Data from ChEMBL document CHEMBL1201861, “Genomics of Drug Sensitity in Cancer screening data, Wellcome Trust Sanger Institute”.

Assays:
Experiment in all cases: cells
MC-IXC = type: functional, cell-based, Homo sapiens; conditions: Homo sapiens, MC-IXC;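 also: growth inhibition of MC-IXC cells, read out with a cell viability assay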
Description: SANGER: Inhibition of human MC-IXC cell growth in a cell viability assay.

SK-LU-1 = type: functional, cell-based, Homo sapiens; conditions: Homo sapiens, SK-LU-1;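 also: cell viability assay measuring growth inhibition of human SK-LU-1 cells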
Description: SANGER: Inhibition of human SK-LU-1 cell growth in a cell viability assay.

COLO-829 = type: functional, cell-based, Homo sapiens; conditions: Homo sapiens, COLO-829
Description: SANGER: Inhibition of human COLO-829 cell growth in a cell viability assay.

647-V = type: functional, cell-based, Homo sapiens; conditions: Homo sapiens, 647-V;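 also: growth inhibition of 647-V cells, read out with a cell viability assay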
Description: SANGER: Inhibition of human 647-V cell growth in a cell viability assay.

DoTc2-4510 = type: functional, cell-based, Homo sapiens; conditions: Homo sapiens, DoTc2-4510
DBTRG-05MG = type: functional, cell-based, Homo sapiens; conditions: Homo sapiens, DBTRG-05MG;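 also: cell viability assay measuring growth inhibition of human DBTRG-05MG cells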
Description: SANGER: Inhibition of human DBTRG-05MG cell growth in a cell viability assay.

KU812 cell line = type: functional, cell-based; conditions: Homo sapiens;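 also: growth inhibition of KU812 cells, read out with a cell viability assay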
Description: SANGER: Inhibition of human KU812 cell growth in a cell viability assay.

KARPAS-45 = type: functional, cell-based; conditions: Homo sapiens;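 also: inhibition of cell line growth, read out through a viability assay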
Description: SANGER: Inhibition of human KARPAS-45 cell growth in a cell viability assay.

PC-14 = type: functional, cell-based, Homo sapiens; conditions: Homo sapiens, PC-14;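 also: cell viability assay measuring inhibition of PC-14 cell growth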
Description: SANGER: Inhibition of human PC-14 cell growth in a cell viability assay.

M059J = type: functional, cell-based, Homo sapiens; conditions: Homo sapiens, M059J;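 also: growth inhibition of M059J cells, read out with a cell viability assay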
Description: SANGER: Inhibition of human M059J cell growth in a cell viability assay.

Ca-Ski = type: functional, cell-based; conditions: Homo sapiens;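 also: cell viability assay measuring inhibition of Ca-Ski cell growth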
Description: SANGER: Inhibition of human Ca-Ski cell growth in a cell viability assay.

8305C = type: functional, cell-based, Homo sapiens; conditions: Homo sapiens, 8305C
Description: SANGER: Inhibition of human 8305C cell growth in a cell viability assay.

HCE-4 = type: functional, cell-based, Homo sapiens; conditions: Homo sapiens, HCE-4;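 also: cell viability assay measuring inhibition of growth in the human HCE-4 cell line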
Description: SANGER: Inhibition of human HCE-4 cell growth in a cell viability assay.

MLMA = type: functional, cell-based, Homo sapiens; conditions: Homo sapiens, MLMA;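 also: growth inhibition of MLMA cells (human), determined through a cell viability readout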
Description: SANGER: Inhibition of human MLMA cell growth in a cell viability assay.

SNU-C2B = type: functional, cell-based, Homo sapiens; conditions: Homo sapiens, SNU-C2B;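 also: cell viability readout used to measure compound-driven suppression of SNU-C2B cell proliferation, IC50 marking half-maximal growth inhibition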
Description: SANGER: Inhibition of human SNU-C2B cell growth in a cell viability assay.

8505C = type: functional, cell-based, Homo sapiens; conditions: Homo sapiens, 8505C
Description: SANGER: Inhibition of human 8505C cell growth in a cell viability assay.

MPP-89 = type: functional, cell-based, Homo sapiens; conditions: Homo sapiens, MPP-89;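 also: growth inhibition of human MPP-89 cells, read out with a cell viability assay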
Description: SANGER: Inhibition of human MPP-89 cell growth in a cell viability assay.

Calu-3 = type: functional, cell-based, Homo sapiens; conditions: Homo sapiens, Calu-3;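 also: growth inhibition of human Calu-3 cells, determined with a cell viability assay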
Description: SANGER: Inhibition of human Calu-3 cell growth in a cell viability assay.

NH-12 = type: functional, cell-based, Homo sapiens; conditions: Homo sapiens, NH-12;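 also: growth inhibition of NH-12 cells, read out with a cell viability assay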
Description: SANGER: Inhibition of human NH-12 cell growth in a cell viability assay.

SK-PN-DW = type: functional, cell-based; conditions: Homo sapiens;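 also: growth inhibition measured with a viability assay on these cells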
Description: SANGER: Inhibition of human SK-PN-DW cell growth in a cell viability assay.

BHT-101 = type: functional, cell-based, Homo sapiens; conditions: Homo sapiens, BHT-101
MZ1-PC = type: functional, cell-based, Homo sapiens; conditions: Homo sapiens, MZ1-PC;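 also: cell viability assay measuring growth inhibition of human MZ1-PC cells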
Description: SANGER: Inhibition of human MZ1-PC cell growth in a cell viability assay.

NMC-G1 = type: functional, cell-based, Homo sapiens; conditions: Homo sapiens, NMC-G1;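 also: growth inhibition of the NMC-G1 cell line, measured with a cell viability read-out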
Description: SANGER: Inhibition of human NMC-G1 cell growth in a cell viability assay.

GR-ST = type: functional, cell-based; conditions: Homo sapiens
Description: SANGER: Inhibition of human GR-ST cell growth in a cell viability assay.

SW684 = type: functional, cell-based, Homo sapiens; conditions: Homo sapiens, SW684;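 also: growth inhibition of human SW684 cells, measured by a cell viability assay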
Description: SANGER: Inhibition of human SW684 cell growth in a cell viability assay.

LN-405 = type: functional, cell-based, Homo sapiens; conditions: Homo sapiens, LN-405
Description: SANGER: Inhibition of human LN-405 cell growth in a cell viability assay.

CTV-1 = type: functional, cell-based; conditions: Homo sapiens;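 also: growth inhibition of the cell line, read out with a cell viability assay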
Description: SANGER: Inhibition of human CTV-1 cell growth in a cell viability assay.

KMOE-2 = type: functional, cell-based; conditions: Homo sapiens;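 also: growth inhibition of human KMOE-2 cells, read out with a cell viability assay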
Description: SANGER: Inhibition of human KMOE-2 cell growth in a cell viability assay.

SW837 = type: functional, cell-based, Homo sapiens; conditions: Homo sapiens, SW837;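 also: growth inhibition of SW837 cells, determined with a cell viability assay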
Description: SANGER: Inhibition of human SW837 cell growth in a cell viability assay.

HTC-C3 = type: functional, cell-based, Homo sapiens; conditions: Homo sapiens, HTC-C3;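 also: inhibition of cell growth, read out with a cell viability assay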
Description: SANGER: Inhibition of human HTC-C3 cell growth in a cell viability assay.

TE-1 = type: functional, cell-based, Homo sapiens; conditions: Homo sapiens, TE-1;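 also: growth inhibition of the human TE-1 cell line, read out with a cell viability assay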
Description: SANGER: Inhibition of human TE-1 cell growth in a cell viability assay.

CAL-54 = type: functional, cell-based, Homo sapiens; conditions: Homo sapiens, CAL-54;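 also: growth inhibition of CAL-54 cells, read out by a viability measurement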
Description: SANGER: Inhibition of human CAL-54 cell growth in a cell viability assay.

KE-37 = type: functional, cell-based; conditions: Homo sapiens;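 also: growth inhibition of KE-37 cells, read out with a cell viability assay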
NCI-H2452 = type: functional, cell-based, Homo sapiens; conditions: Homo sapiens, NCI-H2452;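 also: growth inhibition of NCI-H2452 cells, read out with a cell viability assay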
Description: SANGER: Inhibition of human NCI-H2452 cell growth in a cell viability assay.

SN12C = type: functional, cell-based, Homo sapiens; conditions: Homo sapiens, SN12C;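 also: growth inhibition of human SN12C cells, measured by a cell viability assay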
Description: SANGER: Inhibition of human SN12C cell growth in a cell viability assay.

LB2241-RCC = type: functional, cell-based, Homo sapiens; conditions: Homo sapiens, LB2241-RCC;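 also: cell viability assay measuring how strongly the cultured human renal carcinoma line is prevented from growing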
Description: SANGER: Inhibition of human LB2241-RCC cell growth in a cell viability assay.

CAL-39 = type: functional, cell-based, Homo sapiens; conditions: Homo sapiens, CAL-39;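 also: cell viability assay measuring growth inhibition of CAL-39 cells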
Description: SANGER: Inhibition of human CAL-39 cell growth in a cell viability assay.

A 172 = type: functional, cell-based, Homo sapiens; conditions: Homo sapiens, A 172;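 also: growth inhibition of A172 cells, measured with a cell viability readout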
MHH-NB-11 = type: functional, cell-based, Homo sapiens; conditions: Homo sapiens, MHH-NB-11;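 also: growth inhibition of human MHH-NB-11 cells, read out by a cell viability assay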
Description: SANGER: Inhibition of human MHH-NB-11 cell growth in a cell viability assay.

TK-10 = type: functional, cell-based, Homo sapiens; conditions: Homo sapiens, TK-10;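 also: growth inhibition of TK-10 cells, read out in a cell viability assay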
Description: SANGER: Inhibition of human TK10 cell growth in a cell viability assay.

TCC-SUP = type: functional, cell-based, Homo sapiens; conditions: Homo sapiens, TCC-SUP;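 also: growth inhibition of TCC-SUP cells, read out with a cell viability assay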
Description: SANGER: Inhibition of human TCCSUP cell growth in a cell viability assay.

SF-295 = type: functional, cell-based, Homo sapiens; conditions: Homo sapiens, SF-295; read-out: IC50;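 also: growth inhibition of SF-295 cells, read out with a cell viability assay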
Description: SANGER: Inhibition of human SF295 cell growth in a cell viability assay.

K562 = type: functional, cell-based; conditions: Homo sapiens
Description: SANGER: Inhibition of human K-562 cell growth in a cell viability assay.

NCI-H1792 = type: functional, cell-based, Homo sapiens; conditions: Homo sapiens, NCI-H1792;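 also: growth inhibition of human NCI-H1792 cells, read out as cell viability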
Description: SANGER: Inhibition of human NCI-H1792 cell growth in a cell viability assay.

NCI-H23 = type: functional, cell-based, Homo sapiens; conditions: Homo sapiens, NCI-H23;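 also: cell viability assay measuring growth inhibition of NCI-H23 cells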
NCI-H650 = type: functional, cell-based, Homo sapiens; conditions: Homo sapiens, NCI-H650;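 also: growth inhibition of NCI-H650 cells, read out by a viability assay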
Description: SANGER: Inhibition of human NCI-H650 cell growth in a cell viability assay.

HT-29 = type: functional, cell-based, Homo sapiens; conditions: Homo sapiens, HT-29;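 also: growth inhibition of human HT-29 cells, read out by a cell viability assay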
Description: SANGER: Inhibition of human HT-29 cell growth in a cell viability assay.

SW13 = type: functional, cell-based, Homo sapiens; conditions: Homo sapiens, SW13;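 also: IC50 is inhibition of SW13 cell growth, read out with a cell viability assay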
Description: SANGER: Inhibition of human SW13 cell growth in a cell viability assay.

A2058 = type: functional, cell-based; conditions: Homo sapiens;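 also: reduction of A2058 cell growth, read out with a viability assay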
Description: SANGER: Inhibition of human A2058 cell growth in a cell viability assay.

T98G = type: functional, cell-based, Homo sapiens; conditions: Homo sapiens, T98G;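 also: growth inhibition of T98G cells, read out by a cell viability assay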
Description: SANGER: Inhibition of human T98G cell growth in a cell viability assay.

OE33 = type: functional, cell-based, Homo sapiens; conditions: Homo sapiens, OE33;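 also: growth inhibition of human OE33 cells, measured by a cell viability assay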
Description: SANGER: Inhibition of human OE33 cell growth in a cell viability assay.

SMILES: O=C(c1cc(Cc2n[nH]c(=O)c3ccccc23)ccc1F)N1CCN(C(=O)C2CC2)CC1 [OLAPARIB]
- IC50 (MC-IXC): 3.63 µM
- IC50 (SK-LU-1): > 5 µM
- IC50 (COLO-829): > 5 µM
- IC50 (647-V): > 5 µM
- IC50 (DoTc2-4510): > 5 µM
- IC50 (DBTRG-05MG): > 5 µM
- IC50 (KU812 cell line): > 5 µM
- IC50 (KARPAS-45): > 5 µM
- IC50 (PC-14): > 5 µM
- IC50 (M059J): > 5 µM
- IC50 (Ca-Ski): > 5 µM
- IC50 (8305C): > 5 µM
- IC50 (HCE-4): > 5 µM
- IC50 (MLMA): > 5 µM
- IC50 (SNU-C2B): > 5 µM
- IC50 (8505C): > 5 µM
- IC50 (MPP-89): > 5 µM
- IC50 (Calu-3): > 5 µM
- IC50 (NH-12): > 5 µM
- IC50 (SK-PN-DW): > 5 µM
- IC50 (BHT-101): > 5 µM
- IC50 (MZ1-PC): > 5 µM
- IC50 (NMC-G1): > 5 µM
- IC50 (GR-ST): > 5 µM
- IC50 (SW684): > 5 µM
- IC50 (LN-405): > 5 µM
- IC50 (CTV-1): > 5 µM
- IC50 (KMOE-2): > 5 µM
- IC50 (SW837): > 5 µM
- IC50 (HTC-C3): > 5 µM
- IC50 (TE-1): > 5 µM
- IC50 (CAL-54): > 5 µM
- IC50 (KE-37): > 5 µM
- IC50 (NCI-H2452): > 5 µM
- IC50 (SN12C): > 5 µM
- IC50 (LB2241-RCC): > 5 µM
- IC50 (CAL-39): > 5 µM
- IC50 (A 172): > 5 µM
- IC50 (MHH-NB-11): > 5 µM
- IC50 (TK-10): > 5 µM
- IC50 (TCC-SUP): > 5 µM
- IC50 (SF-295): > 5 µM
- IC50 (K562): > 5 µM
- IC50 (NCI-H1792): > 5 µM
- IC50 (NCI-H23): > 5 µM
- IC50 (NCI-H650): > 5 µM
- IC50 (HT-29): > 5 µM
- IC50 (SW13): > 5 µM
- IC50 (A2058): > 5 µM
- IC50 (T98G): > 5 µM
- IC50 (OE33): > 5 µM

SMILES: O=C(NOCC1CC1)c1ccc(F)c(F)c1Nc1ccc(I)cc1Cl [CI-1040]
- IC50 (MC-IXC): > 10 µM
- IC50 (SK-LU-1): 3.69 µM
- IC50 (COLO-829): 1.62 µM
- IC50 (647-V): > 10 µM
- IC50 (DoTc2-4510): 7.12 µM
- IC50 (DBTRG-05MG): 8.75 µM
- IC50 (KU812 cell line): 0.453 µM
- IC50 (KARPAS-45): > 10 µM
- IC50 (PC-14): > 10 µM
- IC50 (M059J): > 10 µM
- IC50 (Ca-Ski): > 10 µM
- IC50 (8305C): 7.1 µM
- IC50 (HCE-4): > 10 µM
- IC50 (MLMA): > 10 µM
- IC50 (SNU-C2B): > 10 µM
- IC50 (8505C): 3.9 µM
- IC50 (MPP-89): > 10 µM
- IC50 (Calu-3): > 10 µM
- IC50 (NH-12): 4.72 µM
- IC50 (SK-PN-DW): > 10 µM
- IC50 (BHT-101): 0.286 µM
- IC50 (MZ1-PC): > 10 µM
- IC50 (NMC-G1): > 10 µM
- IC50 (GR-ST): 7.4 µM
- IC50 (SW684): > 10 µM
- IC50 (LN-405): > 10 µM
- IC50 (CTV-1): > 10 µM
- IC50 (KMOE-2): 0.198 µM
- IC50 (SW837): > 10 µM
- IC50 (HTC-C3): 0.465 µM
- IC50 (TE-1): > 10 µM
- IC50 (CAL-54): 5.03 µM
- IC50 (KE-37): > 10 µM
- IC50 (NCI-H2452): > 10 µM
- IC50 (SN12C): 3.25 µM
- IC50 (LB2241-RCC): 2.86 µM
- IC50 (CAL-39): 2.9 µM
- IC50 (A 172): 6.49 µM
- IC50 (MHH-NB-11): 6.85 µM
- IC50 (TK-10): 6.33 µM
- IC50 (TCC-SUP): > 10 µM
- IC50 (SF-295): > 10 µM
- IC50 (K562): 8.84 µM
- IC50 (NCI-H1792): 9.45 µM
- IC50 (NCI-H23): > 10 µM
- IC50 (NCI-H650): > 10 µM
- IC50 (HT-29): 5.98 µM
- IC50 (SW13): > 10 µM
- IC50 (A2058): 2.19 µM
- IC50 (T98G): 9 µM
- IC50 (OE33): > 10 µM

SMILES: CN(C)C/C=C/C(=O)Nc1cc2c(Nc3ccc(F)c(Cl)c3)ncnc2cc1O[C@H]1CCOC1 [AFATINIB]
- IC50 (MC-IXC): > 0.5 µM
- IC50 (SK-LU-1): > 0.5 µM
- IC50 (COLO-829): > 0.5 µM
- IC50 (647-V): > 0.5 µM
- IC50 (DoTc2-4510): 0.322 µM
- IC50 (DBTRG-05MG): > 0.5 µM
- IC50 (KU812 cell line): 0.155 µM
- IC50 (KARPAS-45): 0.0167 µM
- IC50 (PC-14): 0.0567 µM
- IC50 (M059J): > 0.5 µM
- IC50 (Ca-Ski): > 0.5 µM
- IC50 (8305C): > 0.5 µM
- IC50 (HCE-4): > 0.5 µM
- IC50 (MLMA): > 0.5 µM
- IC50 (SNU-C2B): > 0.5 µM
- IC50 (8505C): > 0.5 µM
- IC50 (MPP-89): > 0.5 µM
- IC50 (Calu-3): > 0.5 µM
- IC50 (NH-12): > 0.5 µM
- IC50 (SK-PN-DW): > 0.5 µM
- IC50 (BHT-101): > 0.5 µM
- IC50 (MZ1-PC): > 0.5 µM
- IC50 (NMC-G1): > 0.5 µM
- IC50 (GR-ST): > 0.5 µM
- IC50 (SW684): > 0.5 µM
- IC50 (LN-405): > 0.5 µM
- IC50 (CTV-1): > 0.5 µM
- IC50 (KMOE-2): > 0.5 µM
- IC50 (SW837): > 0.5 µM
- IC50 (HTC-C3): > 0.5 µM
- IC50 (TE-1): > 0.5 µM
- IC50 (CAL-54): > 0.5 µM
- IC50 (KE-37): > 0.5 µM
- IC50 (NCI-H2452): > 0.5 µM
- IC50 (SN12C): > 0.5 µM
- IC50 (LB2241-RCC): 0.109 µM
- IC50 (CAL-39): 0.118 µM
- IC50 (A 172): > 0.5 µM
- IC50 (MHH-NB-11): > 0.5 µM
- IC50 (TK-10): 0.267 µM
- IC50 (TCC-SUP): > 0.5 µM
- IC50 (SF-295): > 0.5 µM
- IC50 (K562): > 0.5 µM
- IC50 (NCI-H1792): > 0.5 µM
- IC50 (NCI-H23): > 0.5 µM
- IC50 (NCI-H650): > 0.5 µM
- IC50 (HT-29): > 0.5 µM
- IC50 (SW13): 0.162 µM
- IC50 (A2058): > 0.5 µM
- IC50 (T98G): > 0.5 µM
- IC50 (OE33): > 0.5 µM
